In patent US20220265830A1, “LONG-ACTING FORMULATIONS AND VEHICLES” (DURECT CORPORATION, priority 2019, published 2022):
Values after ≈ are worked out from the molar mass of the structure shown. Read-outs that look alike come from different tables or passages of the source. Marks after values point to notes of the source that are not given here.

Assays:
[1] = in vivo; cited from earlier work
[2] = Experimental, cited from earlier work
[3] = Experimental (Buprenorphine at 25° C.); cited from earlier work
[4] = Experimental; cited from earlier work
physchem = settings: BB
Description: Briefly, samples were prepared by mixing active agent and solvent and were tested at various time points after mixing and after storage at various temperatures. The samples were tested for the solubility of the active agent (mg/mL), calculated as the free base equivalent. Each data point is the average of two replicates unless otherwise specified.

[5] = cited from earlier work

In the case of `O=C1CCc2ccc(OCCCCN3CCN(c4cccc(Cl)c4Cl)CC3)cc2N1` [Aripiprazole], the “Oral Half-life” value [1] is listed as 75 h and the “Water Solubility” value [2] is listed as 0.00001%.

For `CN1CC2c3ccccc3Oc3ccc(Cl)cc3C2C1` (centres unmarked) [Asenapine], the “Oral Half-life” value [1] is listed as roughly 24 h.

For `Nc1ncn([C@@H]2O[C@H](CO)[C@@H](O)[C@H]2O)c(=O)n1` [Azacitidine], the “Oral Half-life” value [1] is listed as roughly 4 h.

In the case of `O=c1ccc2ccc(OCCCCN3CCN(c4cccc5sccc45)CC3)cc2[nH]1` [Brexpiprazoie], the “Oral Half-life” value [1] is given as 91 h.

In the case of `C[C@@](Cc1ccc(O)c(O)c1)(NN)C(=O)O` [Carbidopa], the pKa [3] is given as 2.3, the “Oral Half-life” value [1] is given as roughly 1.78 h and the logP [4] is given as −1.9. For the same compound, the “Water Solubility” value [2] was 3.8 mg/mL.

For `Nc1ncn([C@H]2C[C@H](O)[C@@H](CO)O2)c(=O)n1` [Decitabine], the “Oral Half-life” value [1] is given as 0.51 ± 0.31 h.

In the case of `C[C@@H]1CCO[C@H]2Cn3cc(C(=O)NCc4ccc(F)cc4F)c(=O)c(O)c3C(=O)N12` [Dolutegravir], the “Oral Half-life” value [1] is given as 14 h, the logP [4] is given as 2.2 and the “Water Solubility” value ([2]; in words) is given as “Slightly soluble”.

In the case of `COc1cc2c(cc1Cc1cccc(Cl)c1F)c(=O)c(C(=O)O)cn2[C@H](CO)C(C)C` [Elvitegravir], the “Oral Half-life” value [1] is given as 8.7 h.

In the case of `CCNC(=O)[C@@H]1CCCN1C(=O)[C@H](CCCNC(=N)N)NC(=O)[C@H](CC(C)C)NC(=O)[C@@H](CC(C)C)NC(=O)[C@H](Cc1ccc(O)cc1)NC(=O)[C@H](CO)NC(=O)[C@H](Cc1c[nH]c2ccccc12)NC(=O)[C@H](Cc1c[nH]cn1)NC(=O)[C@@H]1CCC(=O)N1` [Leuprolide], the “Oral Half-life” value [1] is given as roughly 3 h.

In the case of `N[C@@H](Cc1ccc(O)c(O)c1)C(=O)O` [Levodopa], the “Oral Half-life” value [1] is listed as 0.833 h, the logP [4] is listed as 0.05 and the “Water Solubility” value [2] is listed as 5 mM.

In the case of `O=C1[C@@H]2[C@H]3CC[C@H](C3)[C@@H]2C(=O)N1C[C@@H]1CCCC[C@H]1CN1CCN(c2nsc3ccccc23)CC1` [Lurasidone], the “Oral Half-life” value [1] is given as 18 to 37 h.

For `O=C1CC[C@@]2(O)[C@H]3Cc4ccc(O)c5c4[C@@]2(CCN3CC2CC2)[C@H]1O5` [Naltrexone], the logP [4] is listed as 1.92.

In the case of `Cc1cc2c(s1)Nc1ccccc1N=C2N1CCN(C)CC1` [Olanzapine], the “Oral Half-life” value [1] is listed as 21 −54 hrs.

In the case of `Cc1nc2n(c(=O)c1CCN1CCC(c3noc4cc(F)ccc34)CC1)CCCC2O` (centres unmarked) [Paliperidone], the “Oral Half-life” value [1] is given as roughly 23 h and the logP [4] is given as 1.8.

For `Cc1nnc(C(=O)NC(C)(C)c2nc(C(=O)NCc3ccc(F)cc3)c(O)c(=O)n2C)o1` [Raltegravir], the “Oral Half-life” value [1] is given as 9 h.

In the case of `Cc1cc(/C=C/C#N)cc(C)c1Nc1ccnc(Nc2ccc(C#N)cc2)n1` [Rilpivirine], the “Oral Half-life” value [1] is given as 34 to 55 h, the logP [4] is given as 4.86 and the “Water Solubility” value [2] is given as less than 0.1 mg/mL.

For `Cc1cn([C@H]2C=C[C@@H](CO)O2)c(=O)[nH]c1=O` [Stavudine], the “Oral Half-life” value [1] is listed as 0.8 to 1.5 h, the logP [4] is listed as −0.72 and the “Water Solubility” value ([2]; at 21° C.) is listed as 5-10 g/100 mL at.

With `CC(C)OC(=O)[C@H](C)N[P@](=O)(CO[C@H](C)Cn1cnc2c(N)ncnc21)Oc1ccccc1` [TAF Free base, tenofovir alafenamide] the solubility at 4 days (physchem) was 5 mg/mL (≈ 10.5 mM).

In the case of `CC(C)OC(=O)[C@H](C)N[P@](=O)(CO[C@H](C)Cn1cnc2c(N)ncnc21)Oc1ccccc1.CC(C)OC(=O)[C@H](C)N[P@](=O)(CO[C@H](C)Cn1cnc2c(N)ncnc21)Oc1ccccc1.O=C(O)/C=C/C(=O)O` [TAF Hemifumarate], the “Solubility (mg/mL, Calculated as Free Base Equivalent)” value (ACN, 37° C./5 days) is reported as 11 mg/mL, the “Solubility (mg/mL, Calculated as Free Base Equivalent)” value (BB, 37° C., asterisk: taken at 4 days as opposed to 5 days) is reported as 3.9* mg/mL and the “Solubility (mg/mL, Calculated as Free Base Equivalent)” value (DCM, 37° C./5 days) is reported as 97 mg/mL. For the same compound, the “Solubility (mg/mL, Calculated as Free Base Equivalent)” value (DMSO, 37° C./5 days) was 132 mg/mL, the “Solubility (mg/mL, Calculated as Free Base Equivalent)” value (NMP, 37° C./5 days) was 160 mg/mL and the “Solubility (mg/mL, Calculated as Free Base Equivalent)” value (PC, 37° C./5 days) was 22 mg/mL.

For `Nc1ccn([C@H]2CC[C@@H](CO)O2)c(=O)n1` [Zalcitabine], the “Oral Half-life” value [1] is given as 2 h.

In the case of sucrose acetate isobutyrate [SAIB], the viscosity ([5]; at 37° C.) is listed as “about 320,000 cP”, the viscosity ([5]; at 80° C.) is listed as “about 600 cP” and the viscosity ([5]; at about 25° C.) is listed as “about 2 million”.
